Experimental data taken from ChEMBL document CHEMBL1201862, “PubChem BioAssay data set” (2004).
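Compound exposure: 48 hours, 5 concentrations, 96-well plates. GI50 marks 50% less growth.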 Activity calls are given as the source filed them. Rule as the data show it: active = GI50 up to about 1.1 µM and inactive = higher.

Key:
Test in all cases: NCI anticancer screen, dose series, 48 h
[1] = tested on: DLD-1
[2] = tested on: DMS-114
[3] = tested on: M19-MEL
[4] = tested on: DMS-273
[5] = tested on: SNB-78
[6] = tested on: HOP-18
[7] = tested on: XF498
[8] = tested on: T47D
[9] = tested on: RXF 631

Row | Compound | GI50 [1] | GI50 [3] | GI50 [4] | GI50 [5] | GI50 [8] | other results
1 | Nc1ccc(C(=O)NN2C(=O)C(Cl)C2c2ccc([N+](=O)[O-])cc2)cc1 (stereo unspecified) | 9.79 µM (inactive) | 14.6 µM (inactive) | 5.62 µM (inactive) | 22.6 µM (inactive) |  | GI50 [2]: 2.84 µM (inactive)
2 | O=c1c2cc(Br)ccc2n(C2OC(CO)C(O)C(O)C2O)c(=S)n1-c1ccccc1 (stereo unspecified) | > 100 µM (inactive) | > 100 µM (inactive) |  | > 100 µM (inactive) |  | GI50 [6]: > 100 µM (inactive); GI50 [2]: > 100 µM (inactive); GI50 [7]: 50.5 µM (inactive)
3 | O=c1[nH]c2ccc(Cl)cc2o1 |  |  |  |  | > 100 µM (inactive) | 
4 | OC(c1cc2ccccc2[nH]1)C1(c2cccnc2)SCCCS1 (stereo unspecified) |  |  |  |  | 69.7 µM (inactive) | 
5 | O=C1NC(=O)C(C(c2ccc(Cl)cc2)C2C(=O)NC(=O)NC2=O)C(=O)N1.c1ccncc1 |  |  |  |  | > 100 µM (inactive) | 
6 | COC(=O)[C@]12CCC(=O)N1[C@H](C(=O)O)Cc1c2[nH]c2ccccc12 |  |  |  |  | > 100 µM (inactive) | 
7 | O=c1[nH]nc(-c2ccc3ccccc3c2)[nH]1 |  |  |  |  | > 100 µM (inactive) | 
8 | CCOC(=O)C(O)(NC(=O)Nc1ccc(F)cc1)C(F)(F)F (stereo unspecified) |  |  |  |  | > 100 µM (inactive) | 
9 | C[C@H]1C=C2[C@@H]3CC(C)(C(=O)O)CC[C@]3(C)CC[C@]2(C)[C@]2(C)CC[C@H]3C(C)(C)[C@@H](OC(=O)c4cccc5c(=O)c6ccccc6[nH]c45)CC[C@]3(C)[C@@H]12 (stereo partly specified) |  |  |  |  | 26.9 µM (inactive) | 
10 | Cc1ccc([S+](c2ccccc2)c2cc(C)ccc2C)cc1 (stereo unspecified) | 1.81 µM (inactive) | 1.62 µM (inactive) | 0.859 µM (active) |  |  | GI50 [6]: 1.38 µM (inactive); GI50 [2]: 1.08 µM (active)
11 | OC(CCN1CCN(CCOC(c2ccc(F)cc2)c2ccc(F)cc2)CC1)c1ccc(Br)cc1 (stereo unspecified) |  |  |  |  | 3.05 µM (inactive) | 
12 | CCn1sc2ccccc2c1=O |  |  |  |  | 7.93 µM (inactive) | 
13 | COc1cccc(C(=O)O)c1Cc1cccc2ccccc12 | > 100 µM (inactive) | > 100 µM (inactive) | > 100 µM (inactive) |  |  | GI50 [6]: > 100 µM (inactive)
14 | COC(=N)C12C(N)=NC(OC)(OC)C1(C#N)C21C(=O)N(c2ccccc2)N=C1C (stereo unspecified) |  |  |  |  | > 100 µM (inactive) | 
15 | C#C[C@]1(O)CC[C@H]2[C@@H]3CCC4=C/C(=N/OC(=O)c5cccc6cc7ccccc7nc56)CC[C@@H]4[C@H]3CC[C@@]21CC |  |  |  |  | 33.8 µM (inactive) | 
16 | COC(=O)c1c(O)ccc2c1c1cc3ccccc3cc1n2Cc1cc(OC)cc(OC)c1 |  |  |  |  | 3.06 µM (inactive) | 
17 | N=C(N)N/N=C/c1c[nH]c2ccccc12 | > 100 µM (inactive) |  | > 100 µM (inactive) | > 100 µM (inactive) |  | GI50 [6]: > 100 µM (inactive); GI50 [2]: 81.8 µM (inactive)

Row | Compound | GI50 [1] | GI50 [3] | GI50 [4] | GI50 [5] | GI50 [8] | other results
18 | CCCCc1c(C(=O)OC(C)(C)C)cc(C#Cc2cc(C(=O)OC(C)(C)C)c(CCCC)c(C(=O)OC(C)(C)C)c2)cc1C(=O)OC(C)(C)C |  |  |  |  | > 100 µM (inactive) | 
19 | CN(C)c1ccc(/C=C/C(=O)c2cc(C(C)(C)C)c(O)c(C(C)(C)C)c2)cc1 |  |  |  |  | 4.06 µM (inactive) | 
20 | CN(C)CCNC(=O)c1cccc2ccc(-c3ccncc3)nc12 | 2.48 µM (inactive) | 1.89 µM (inactive) | 1.1 µM (active) | 7.24 µM (inactive) |  | GI50 [6]: 3.47 µM (inactive); GI50 [2]: 2.96 µM (inactive)
21 | O=C(O)C1=NN(c2ccc(S(=O)(=O)O)cc2)C2(C1)SCC(=O)N2c1nc2ccccc2s1 (stereo unspecified) |  |  |  |  | > 100 µM (inactive) | 
22 | Cc1cc(=O)oc2cc(OC(=O)N(CCCl)CCCl)ccc12 |  |  |  |  | 62.4 µM (inactive) | 
23 | CCNC(=S)N/N=C(\C)c1cccc(C)n1 |  |  |  |  | 0.643 µM (active) | 
24 | CCOC(=O)/C(=C\c1ccccc1)C(=O)O |  | > 100 µM (inactive) | > 100 µM (inactive) | > 100 µM (inactive) |  | GI50 [2]: > 100 µM (inactive); GI50 [7]: > 100 µM (inactive)
25 | CC1=C[C@H]2c3c([nH]c4ccccc34)C(c3c[nH]c4ccccc34)[C@H]2CC1 (stereo partly specified) | 6.43 µM (inactive) | 10.3 µM (inactive) | 4.33 µM (inactive) | 3.53 µM (inactive) |  | GI50 [6]: 11.7 µM (inactive); GI50 [2]: 5.74 µM (inactive); GI50 [9]: 3.57 µM (inactive)
26 | O=c1[nH]nc(Cc2ccccc2)n1/N=C/c1ccc(/C=N/n2c(Cc3ccccc3)n[nH]c2=O)cc1 |  |  |  |  | > 100 µM (inactive) | 
27 | C=C(C)CCC(O)[C@](C)(O)[C@H]1[C@H](O)C[C@@]2(C)[C@@H]3CCc4c(cc(OC5OC(CO)C(O)C(O)C5O)c(O)c4C)C3(C)C(=O)C[C@]12C (stereo partly specified) |  |  |  |  | > 100 µM (inactive) | 
28 | CCC12C=CCN3CC[C@]4(C(=C(C(=O)OC)[C@@H]1Nc1ccn(C5OC(COC(C)=O)C(OC(C)=O)C5OC(C)=O)c(=O)n1)Nc1ccccc14)C32 (stereo partly specified) | 4.53 µM (inactive) | 3.98 µM (inactive) | 4.28 µM (inactive) | 5.42 µM (inactive) |  | GI50 [6]: 6.92 µM (inactive); GI50 [7]: 5.74 µM (inactive)
29 | CO[C@H](C(=O)O[C@H]1C(=O)N2CC[C@@H]3CCC[C@H]1C32C)c1ccccc1 (stereo partly specified) | > 100 µM (inactive) | > 100 µM (inactive) |  | > 100 µM (inactive) |  | GI50 [2]: > 100 µM (inactive)
30 | CCOC(=O)C(=CNC(=S)N/N=C1\C(=O)Nc2ccccc21)C(=O)OCC |  |  |  |  | > 100 µM (inactive) | 
31 | O=C(/C=C/c1ccc[nH]1)c1ccccc1 | > 100 µM (inactive) | > 100 µM (inactive) | > 100 µM (inactive) | > 100 µM (inactive) |  | GI50 [6]: 40.2 µM (inactive); GI50 [2]: > 100 µM (inactive)
32 | Nc1cccc2c1C(=O)c1cccc(N)c1C2=O | > 100 µM (inactive) | > 100 µM (inactive) | > 100 µM (inactive) | > 100 µM (inactive) |  | GI50 [9]: > 100 µM (inactive); GI50 [7]: 19.4 µM (inactive)
33 | c1ccc2[nH]c(-c3cscn3)nc2c1 [THIABENDAZOLE] |  |  |  |  | > 100 µM (inactive) | 
